One may read the IC50 as the concentration that gives 50% inhibition. For orientation: Ki means the equilibrium dissociation constant of an inhibitor or competing ligand from its target.

T3 sequence (Q96EB6 2-747 F273L limits assumed): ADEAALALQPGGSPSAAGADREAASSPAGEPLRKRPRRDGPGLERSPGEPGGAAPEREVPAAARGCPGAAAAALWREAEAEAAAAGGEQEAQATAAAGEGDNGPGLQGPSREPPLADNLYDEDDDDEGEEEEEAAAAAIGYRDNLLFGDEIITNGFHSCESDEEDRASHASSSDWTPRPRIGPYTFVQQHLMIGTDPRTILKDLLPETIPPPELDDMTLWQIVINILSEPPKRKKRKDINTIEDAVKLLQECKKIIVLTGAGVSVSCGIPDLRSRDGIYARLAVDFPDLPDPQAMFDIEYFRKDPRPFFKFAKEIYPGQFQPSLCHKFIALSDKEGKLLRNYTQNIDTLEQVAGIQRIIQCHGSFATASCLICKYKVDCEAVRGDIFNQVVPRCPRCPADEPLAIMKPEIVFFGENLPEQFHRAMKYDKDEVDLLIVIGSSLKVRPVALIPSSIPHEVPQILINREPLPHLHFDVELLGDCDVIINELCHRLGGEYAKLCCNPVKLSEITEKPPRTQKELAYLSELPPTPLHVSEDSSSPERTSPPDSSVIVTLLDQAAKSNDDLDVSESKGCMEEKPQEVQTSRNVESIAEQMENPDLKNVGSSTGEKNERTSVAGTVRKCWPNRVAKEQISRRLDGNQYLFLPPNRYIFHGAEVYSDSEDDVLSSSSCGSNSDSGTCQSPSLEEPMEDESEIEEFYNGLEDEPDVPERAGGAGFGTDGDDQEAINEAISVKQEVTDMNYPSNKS

The target of one assay is T1, NAD-dependent protein deacetylase sirtuin-1 (Homo sapiens, UniProt Q96EB6).
T1 sequence (Q96EB6 whole entry): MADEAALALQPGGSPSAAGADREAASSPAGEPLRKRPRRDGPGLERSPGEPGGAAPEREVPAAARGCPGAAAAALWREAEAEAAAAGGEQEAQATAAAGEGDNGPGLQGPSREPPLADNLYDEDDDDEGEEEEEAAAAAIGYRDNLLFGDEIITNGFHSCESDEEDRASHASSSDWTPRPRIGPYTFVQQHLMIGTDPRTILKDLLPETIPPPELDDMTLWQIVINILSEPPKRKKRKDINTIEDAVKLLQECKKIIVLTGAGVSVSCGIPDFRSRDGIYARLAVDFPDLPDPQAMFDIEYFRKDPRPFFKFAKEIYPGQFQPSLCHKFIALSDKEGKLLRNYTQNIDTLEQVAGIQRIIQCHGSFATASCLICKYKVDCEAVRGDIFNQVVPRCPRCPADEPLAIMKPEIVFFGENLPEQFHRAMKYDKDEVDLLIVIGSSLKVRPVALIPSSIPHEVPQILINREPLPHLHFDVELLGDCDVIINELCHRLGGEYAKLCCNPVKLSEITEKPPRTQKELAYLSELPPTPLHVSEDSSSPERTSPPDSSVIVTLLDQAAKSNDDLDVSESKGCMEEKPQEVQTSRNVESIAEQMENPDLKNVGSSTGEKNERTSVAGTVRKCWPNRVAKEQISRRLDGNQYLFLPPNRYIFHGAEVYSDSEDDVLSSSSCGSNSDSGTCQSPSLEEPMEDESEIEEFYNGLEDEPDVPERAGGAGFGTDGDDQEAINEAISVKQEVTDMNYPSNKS
The experiment in a line: Inhibition of hexa-His-tagged recombinant human SIRT1 expressed in Escherichia coli BL21(DE3) using AMC-labeled Arg-His-Lys-Lys(ac) as substrate assessed as inhibition of deacetylation of peptide after 45 mins by fluorescence assay.
Take `c1coc(-c2nnc3sc(-c4cccs4)nn23)c1`: the half-maximal inhibitory concentration (IC50) is 88.6 µM.
On the same count and under the same terms, then `CCOc1ccccc1-c1nn2c(-c3ccco3)nnc2s1`, with 23.6 µM; and `c1coc(-c2nnc3sc(-c4ccncc4)nn23)c1`, with 49.8 µM.
Still for that read-out and setting: then `COc1cccc(-c2nn3c(-c4ccco4)nnc3s2)c1`, with 20.3 µM.
Still for that read-out and setting: then `c1coc(-c2nnc3sc(-c4ccc5c(c4)OCO5)nn23)c1`, with 45.2 µM; and `c1coc(-c2nnc3sc(Cc4ccc5c(c4)OCCO5)nn23)c1`, with 67 µM; and `c1ccc(-c2nn3c(-c4ccco4)nnc3s2)cc1`, with 27.6 µM.
Turning to `Cc1ccc(OCc2nn3c(-c4ccco4)nnc3s2)cc1`, the concentration for half-maximal inhibition (IC50) was 29.3 µM.
The same measure, in the same setting: then `c1ccc(CCc2nn3c(-c4ccco4)nnc3s2)cc1`, with 47.4 µM; and `Cc1ccc(OCc2nn3c(-c4ccco4)nnc3s2)cc1C`, with 28.7 µM.
Still for that read-out and setting: then `COc1ccc(Cc2nn3c(-c4ccco4)nnc3s2)cc1OC`, with 4.1 µM.
For the compound `C=CCOc1cccc(-c2nn3c(-c4ccco4)nnc3s2)c1`, the half-maximal inhibitory concentration (IC50) was found to be 18.8 µM.
Consider `Cc1ccc(-c2nn3c(-c4ccco4)nnc3s2)cc1`, for which the IC50 stood at 27.4 µM.
As for `c1coc(-c2nnc3sc(C4COc5ccccc5O4)nn23)c1` (stereo not drawn), the half-inhibitory concentration (IC50) was determined as 8.9 µM.
Same read-out and setting: then `CCOc1ccccc1OCc1nn2c(-c3ccco3)nnc2s1`, with 13.7 µM; and `COc1ccc(-c2nn3c(-c4ccco4)nnc3s2)cc1`, with 46.7 µM.
On the same count and under the same terms, then `COc1ccc(Cc2nn3c(-c4ccco4)nnc3s2)cc1`, with 76.9 µM; and `c1coc(-c2nnc3sc(-c4ccc5c(c4)OCCO5)nn23)c1`, with 40.7 µM.
On the same count and under the same terms, then `Cc1cccc(OCc2nn3c(-c4ccco4)nnc3s2)c1`, with 75.3 µM.
Turning to `c1ccc(CCCc2nn3c(-c4ccco4)nnc3s2)cc1`, the 50% inhibitory concentration (IC50) stood at 12.2 µM.
The same measure, in the same setting: then `Cc1ccccc1OCc1nn2c(-c3ccco3)nnc2s1`, with 18.7 µM; and `C=CCOc1ccc(-c2nn3c(-c4ccco4)nnc3s2)cc1`, with 29.5 µM; and `c1coc(-c2nnc3sc(-c4cnccn4)nn23)c1`, with 66.6 µM.
On the same count and under the same terms, then `Cc1cccc(-c2nn3c(-c4ccco4)nnc3s2)c1`, with 7.5 µM.
Still for that read-out and setting: then `CCOc1cc(-c2nn3c(-c4ccco4)nnc3s2)cc(OCC)c1OCC`, with 65.7 µM.
On to `COc1cccc(OCc2nn3c(-c4ccco4)nnc3s2)c1`, for which the IC50 was 48.4 µM.
Still for that read-out and setting: then `c1cncc(-c2nn3c(-c4ccco4)nnc3s2)c1`, with 78.8 µM; and `CC(Oc1ccccc1)c1nn2c(-c3ccco3)nnc2s1` (stereo not drawn), with 67.9 µM.
Consider `CCC(Oc1ccccc1)c1nn2c(-c3ccco3)nnc2s1` (stereo not drawn), for which the IC50 is more than 100 µM.
For the compound `COc1ccc(-c2nn3c(-c4ccco4)nnc3s2)cc1OC`, the 50% inhibitory concentration (IC50) was 24.8 µM.
Take `c1ccc(-c2nn3c(-c4ccco4)nnc3s2)nc1`: the 50% inhibitory concentration (IC50) came to 3.5 µM.
Same read-out and setting: then `COc1ccccc1OCc1nn2c(-c3ccco3)nnc2s1`, with 51.2 µM; and `c1ccc(Cc2nn3c(-c4ccco4)nnc3s2)cc1`, with 37.9 µM; and `c1ccc(OCc2nn3c(-c4ccco4)nnc3s2)cc1`, with 61.3 µM.
Take `CCOc1cccc(-c2nn3c(-c4ccco4)nnc3s2)c1`: the concentration for half-maximal inhibition (IC50) is 19 µM.
Regarding `CCOc1ccc(-c2nn3c(-c4ccco4)nnc3s2)cc1`, the half-inhibitory concentration (IC50) came to 31.3 µM.
On the same count and under the same terms, then `Fc1ccc(-c2ccc(-c3nn4c(-c5ccco5)nnc4s3)o2)cc1`, with more than 100 µM; and `COc1cc(-c2nn3c(-c4ccco4)nnc3s2)cc(OC)c1OC`, with 35.6 µM.
Same read-out and setting: then `c1coc(-c2nn3c(-c4ccco4)nnc3s2)c1`, with 22 µM; and `CCC(c1ccccc1)c1nn2c(-c3ccco3)nnc2s1` (stereo not drawn), with 96.2 µM; and `Clc1ccc(Cc2nn3c(-c4ccco4)nnc3s2)cc1`, with 78 µM.
`c1coc(-c2nnc3sc(-c4cc5ccccc5o4)nn23)c1`: the IC50 came to 20.6 µM.
The same measure, in the same setting: then `COc1ccc(OCc2nn3c(-c4ccco4)nnc3s2)cc1`, with 41 µM.

The target in a further assay is T2, NAD-dependent protein deacetylase sirtuin-1 (Homo sapiens) (UniProt Q96EB6).
T2 sequence (whole entry): T1 sequence (Q96EB6 whole entry)
Description: Inhibition of SIRT1-mediated deacetylation of p53 in human MCF7 cells at 1.2 to 100 uM after 6 hrs by Western blotting. The format is cell-based. For orientation: Immunoblotting shows a protein as a band on a membrane.
On to `COc1ccc(Cc2nn3c(-c4ccco4)nnc3s2)cc1OC`, for which the inhibition result was “Dose-dependent effect”.
The same measure, in the same setting: then `c1coc(-c2nnc3sc(C4COc5ccccc5O4)nn23)c1` (stereo not drawn), with “Dose-dependent effect”.
Still for that read-out and setting: then `c1ccc(-c2nn3c(-c4ccco4)nnc3s2)nc1`, with “Dose-dependent effect”.

A further assay addresses T3, NAD-dependent protein deacetylase sirtuin-1 (Homo sapiens, UniProt Q96EB6, F273L). The experiment in a line: Inhibition of human SIRT1 F273L mutant expressed in Escherichia coli BL21(DE3) using AMC-labeled Arg-His-Lys-Lys(ac) as substrate assessed as inhibition of deacetylation of peptide after 45 mins by fluorescence assay.
`c1ccc(-c2nn3c(-c4ccco4)nnc3s2)nc1`: the IC50 was 133 µM.

The target of a further assay is T4, NAD-dependent protein deacetylase sirtuin-1 (Homo sapiens, UniProt Q96EB6, I347A). The experiment in a line: Inhibition of human SIRT1 I347A mutant expressed in Escherichia coli BL21(DE3) using AMC-labeled Arg-His-Lys-Lys(ac) as substrate assessed as inhibition of deacetylation of peptide after 45 mins by fluorescence assay.
T4 sequence (Q96EB6 2-747 I347A limits assumed): as the sequence (Q96EB6 2-747 F273L limits assumed) above, with L272F, I346A counted along it
`c1ccc(-c2nn3c(-c4ccco4)nnc3s2)nc1`: the IC50 is 87.9 µM.

For the next assay, the target named is T5, NAD-dependent protein deacetylase sirtuin-1 (Homo sapiens, UniProt Q96EB6, F414A). Description: Inhibition of human SIRT1 F414A mutant expressed in Escherichia coli BL21(DE3) using AMC-labeled Arg-His-Lys-Lys(ac) as substrate assessed as inhibition of deacetylation of peptide after 45 mins by fluorescence assay.
T5 sequence (Q96EB6 2-747 F414A limits assumed): as the sequence (Q96EB6 2-747 F273L limits assumed) above, with L272F, F413A counted along it
For `c1ccc(-c2nn3c(-c4ccco4)nnc3s2)nc1`, the IC50 came to 44 µM.

A further assay deals with T3, NAD-dependent protein deacetylase sirtuin-1. Description: Inhibition of human SIRT1 F273L mutant expressed in Escherichia coli BL21(DE3) using AMC-labeled Arg-His-Lys-Lys(ac) as substrate assessed as inhibition of deacetylation of peptide after 45 mins by Lineweaver-Burke plot method.
Turning to `c1ccc(-c2nn3c(-c4ccco4)nnc3s2)nc1`, the inhibitory constant (Ki) was determined as 58.9 µM.

The next assay has as its target T4, NAD-dependent protein deacetylase sirtuin-1. The experiment in a line: Inhibition of human SIRT1 I347A mutant expressed in Escherichia coli BL21(DE3) using AMC-labeled Arg-His-Lys-Lys(ac) as substrate assessed as inhibition of deacetylation of peptide after 45 mins by Lineweaver-Burke plot method.
For `c1ccc(-c2nn3c(-c4ccco4)nnc3s2)nc1`, the inhibition constant Ki was found to be 39.1 µM.

The target of a further assay is T5, NAD-dependent protein deacetylase sirtuin-1. The experiment in a line: Inhibition of human SIRT1 F414A mutant expressed in Escherichia coli BL21(DE3) using AMC-labeled Arg-His-Lys-Lys(ac) as substrate assessed as inhibition of deacetylation of peptide after 45 mins by Lineweaver-Burke plot method.
Regarding `c1ccc(-c2nn3c(-c4ccco4)nnc3s2)nc1`, the inhibitory constant (Ki) was 24.1 µM.

A further assay addresses T1, NAD-dependent protein deacetylase sirtuin-1. The experiment in a line: Inhibition of hexa-His-tagged recombinant human SIRT1 expressed in Escherichia coli BL21(DE3) using AMC-labeled Arg-His-Lys-Lys(ac) as substrate assessed as inhibition of deacetylation of peptide after 45 mins by Lineweaver-Burke plot method.
Take `c1ccc(-c2nn3c(-c4ccco4)nnc3s2)nc1`: the Ki turned out to be 0.6 µM.

(Values after ChEMBL document CHEMBL3351989, “Structure-activity relationship and interaction studies of new SIRT1 inhibitors with the scaffold of 3-(furan-2-yl)-[1,2,4]triazolo[3,4-b][1,3,4]thiadiazole” (Bioorg Med Chem Lett, 2014).)
